Earlier results on 1 molecule are cited in patent US20040142914A1, “Extended transdermal contraceptive regimens” (priority 2002, published 2004).

The conditions of the series: humans.

Regarding `C#C[C@]1(OC(C)=O)CC[C@H]2[C@@H]3CCC4=CC(=NO)CC[C@@H]4[C@H]3CC[C@@]21CC` (mixture of isomers) [norgestimate], the “share of norgestimate converted to norelgestromin in vivo” value is given as at least 80%.
